# According to PubChem BioAssay (NCI):
#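 Five compound concentrations were applied to cells in 96-well plates for 48 hours; endpoints were derived by simple linear interpolation of the resulting dose-response curve. GI50: concentration for 50% inhibition of growth. TGI marks complete inhibition of growth.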
# Tested on: IGROV1 ovarian
# Assay: growth of human tumour cells (NCI), 48 h
Compound,TGI [µM],GI50 [µM]
O=C(c1ccccc1)[C@H]1Nc2cnccc2C2c3ccccc3CC21 (stereo not given in full),> 58.6,–
CN(C)c1nc(-c2cccs2)n2nc(-c3ccc(Cl)cc3)cc2n1,> 100,5.28
COc1ccc(C(=O)C(C(=O)CCC(=O)Nc2cccc(C(F)(F)F)c2)c2ccccc2)cc1 (stereo not given),> 100,–
NC1=NC(=O)C(CC(=O)Nc2ccc([N+](=O)[O-])cc2[N+](=O)[O-])S1 (stereo not given),> 100,–
O=C1c2ccccc2-c2cccc3ccc(Cc4ccccc4)c1c23,> 100,–
COC(=O)/C(=N\NC(=S)NN)C(C(=O)C(=O)Nc1ccccc1C(N)=O)c1nc2ccccc2[nH]c1=O (stereo not given),> 100,–
CC1CCCC(C(=O)/C(=C/c2cccc(Cl)c2)C(=O)C(=O)O)C1 (stereo not given),83.5,–
CC(=O)c1c(C)n([O-])c2cc(C)c(C)cc2[n+]1=O,> 100,–
CCCS(=O)(=O)c1nc(NC2CC2)cc(-c2ccc3c(ccn3C3CC(C)(C)NC(C)(C)C3)c2)n1,3.81,1.97
N#CC(C#N)=Cc1cccc(Oc2ccccc2)c1,67,–
Cc1ncc([N+](=O)[O-])n1CCNC(=O)CCCCn1ccnc1[N+](=O)[O-],> 100,–
COc1ccc(/C=C/C(=O)c2sc(-n3nc(-c4ccccc4)cc3-c3ccccc3)nc2C)cc1OC,> 100,–
NC(CCSCC(F)F)C(=O)O (stereo not given),> 100,–
CC1(C)OC(=O)C=C([O-])O1.CC1(C)OC(=O)C=C([O-])O1.O=c1c(O)c(-c2ccc([O-])cc2[O-])oc2cc(O)cc(O)c12.[Ti+4],> 100,–
Nc1ccc(SC23CC4CC(CC(C4)C2)C3)cc1,> 100,–
CCOC(=O)[C@@H](C)C[C@H](Cc1ccccc1)NC(=O)c1csc([C@@H](C[C@H](C(C)C)N(C)C(=O)[C@@H](NC(=O)[C@H]2CCCCN2C)C(C)(C)C)OC(C)=O)n1,> 16.7,< 0.00167

# Tested on: MDA-MB-231 breast
# Assay: growth of human tumour cells (NCI), 48 h
Compound,GI50 [µM],TGI [µM]
Cc1c(C(=O)NN)nnn1-c1ccnc2c(C(F)(F)F)cccc12,> 100,> 100
O=C(N/N=C/c1ccc(Cl)cc1Cl)c1ccccc1Nc1cccc(C(F)(F)F)c1,4.79,32.2
Cc1ccc(C(=O)CC(Sc2cccc(Cl)c2Cl)c2ccc(Cl)cc2)cc1C (stereo not given),17.9,39
C=C1CC(COc2cc(Cl)nc(N)n2)C1,30.1,–
O=C1c2ccccc2-c2c1c1ccccc1c(=O)n2CCNCCCNCCn1c2c(c3ccccc3c1=O)C(=O)c1ccccc1-2,0.161,0.548
CN(C)c1nc(-c2cccs2)n2nc(-c3ccc(Cl)cc3)cc2n1,3.7,> 100
CN(C)CCNC(=O)Nc1c(C#N)[n+]([O-])c2cc(Cl)c(Cl)cc2[n+]1[O-],19.9,56.9
Cc1ncc([N+](=O)[O-])n1CCNC(=O)CCCCn1ccnc1[N+](=O)[O-],–,> 100
COC(=O)NC/C=C\c1nc(CC/C=C\C(=O)OC2CC3CC(=O)O[C@@H](/C=C/CC(C)C)C[C@@H]4CCC(C)C(C[C@@H](OC)CC(C2)O3)O4)co1 (stereo not given in full),4.43,47.6
Nc1ccc(SC23CC4CC(CC(C4)C2)C3)cc1,–,> 100
CCOC(=O)[C@@H](C)C[C@H](Cc1ccccc1)NC(=O)c1csc([C@@H](C[C@H](C(C)C)N(C)C(=O)[C@@H](NC(=O)[C@H]2CCCCN2C)C(C)(C)C)OC(C)=O)n1,< 0.00167,0.647

# Tested on: NCI-H460 lung
# Assay: growth of human tumour cells (NCI), 48 h
Compound,GI50 [µM],TGI [µM]
Cc1c(C(=O)NN)nnn1-c1ccnc2c(C(F)(F)F)cccc12,> 100,> 100
O=C(N/N=C/c1ccc(Cl)cc1Cl)c1ccccc1Nc1cccc(C(F)(F)F)c1,6.98,> 100
N#Cc1c(N)c(C(=O)O)nn(-c2cccc(C(F)(F)F)c2)c1=O,–,> 100
CCOC(=O)Cc1nc(/C(C#N)=C/c2ccco2)[nH]c(=O)c1C#N,–,> 100
CC1=Nc2c(ccc3c2C(=O)c2ccccc2C3=O)NC(c2ccncc2)C1 (stereo not given),> 100,> 100
Cc1ccc(C(=O)CC(Sc2cccc(Cl)c2Cl)c2ccc(Cl)cc2)cc1C (stereo not given),19.1,42.1
COc1cc(/C=C\c2ccc(O)cc2)cc(OC)c1OC,–,> 30
C=C(COC(C)=O)CC(/C=C(\C)CCC=C(C)C)OC(C)=O (stereo not given),–,> 100
CC1(C)CCc2cc3c(cc2O1)OCCC3=O,–,> 100
Oc1c2c(c(O)c3ccccc13)=N[C@@H](c1ccccc1)[C@H](c1ccccc1)N=2,–,> 100
c1cc[c]([Sn]([S]c2cccc3cccnc23)([c]2ccccc2)[c]2ccccc2)cc1,0.0143,0.033
O=C1CCn2c([nH]c3cccc4cccc2c43)=N1,–,> 100
C=C1CC(COc2cc(Cl)nc(N)n2)C1,55.6,–
Cc1cc(C)nc(NS(=O)(=O)c2ccc(Nc3c4ccccc4nc4c(C(=O)N5CCN(CCOS(C)(=O)=O)CC5)ccc(Cl)c34)cc2)n1,–,> 100
CN1CCN(C)C1c1cccc(C2N(C)CCN2C)c1,–,> 100
CC(=O)OCCOCBr,–,> 100
O=C1c2ccccc2-c2c1c1ccccc1c(=O)n2CCNCCCNCCn1c2c(c3ccccc3c1=O)C(=O)c1ccccc1-2,< 0.005,> 50
CC(O)CN1C(=O)NC(Cc2ccccc2)C1=O (stereo not given),–,> 100

Compound,GI50 [µM],TGI [µM]
O=C(c1ccccc1)[C@H]1Nc2cnccc2C2c3ccccc3CC21 (stereo not given in full),–,33.9
COc1ccc(C(=O)C(C(=O)CCC(=O)Nc2cccc(C(F)(F)F)c2)c2ccccc2)cc1 (stereo not given),–,> 100
NC1=NC(=O)C(CC(=O)Nc2ccc([N+](=O)[O-])cc2[N+](=O)[O-])S1 (stereo not given),–,> 100
O=C1c2ccccc2-c2cccc3ccc(Cc4ccccc4)c1c23,–,> 100
CN(C)CCNC(=O)Nc1c(C#N)[n+]([O-])c2cc(Cl)c(Cl)cc2[n+]1[O-],21.1,> 100
CC/C=C\C/C=C\C1CC(=O)NCCCNCCCCN1 (stereo not given),–,> 100
CC1CCCC(C(=O)/C(=C/c2cccc(Cl)c2)C(=O)C(=O)O)C1 (stereo not given),–,> 100
CC(=O)c1c(C)n([O-])c2cc(C)c(C)cc2[n+]1=O,–,> 100
CCCS(=O)(=O)c1nc(NC2CC2)cc(-c2ccc3c(ccn3C3CC(C)(C)NC(C)(C)C3)c2)n1,1.8,3.55
N#CC(C#N)=Cc1cccc(Oc2ccccc2)c1,–,61
Cc1ncc([N+](=O)[O-])n1CCNC(=O)CCCCn1ccnc1[N+](=O)[O-],–,> 100
COc1ccc(/C=C/C(=O)c2sc(-n3nc(-c4ccccc4)cc3-c3ccccc3)nc2C)cc1OC,–,> 100
NC(CCSCC(F)F)C(=O)O (stereo not given),–,> 100
COC(=O)NC/C=C\c1nc(CC/C=C\C(=O)OC2CC3CC(=O)O[C@@H](/C=C/CC(C)C)C[C@@H]4CCC(C)C(C[C@@H](OC)CC(C2)O3)O4)co1 (stereo not given in full),< 0.01,> 100
CC1(C)OC(=O)C=C([O-])O1.CC1(C)OC(=O)C=C([O-])O1.O=c1c(O)c(-c2ccc([O-])cc2[O-])oc2cc(O)cc(O)c12.[Ti+4],–,> 100
Nc1ccc(SC23CC4CC(CC(C4)C2)C3)cc1,–,> 100
CCOC(=O)[C@@H](C)C[C@H](Cc1ccccc1)NC(=O)c1csc([C@@H](C[C@H](C(C)C)N(C)C(=O)[C@@H](NC(=O)[C@H]2CCCCN2C)C(C)(C)C)OC(C)=O)n1,< 0.00167,> 5.37

# Tested on: OVCAR-4 ovarian
# Assay: growth of human tumour cells (NCI), 48 h
Compound,TGI [µM],GI50 [µM]
CN(C)C(=S)/N=c1\ss/c(=N\S(=O)(=O)c2ccccc2)n1-c1ccccc1,> 100,–
Cc1c(C(=O)NN)nnn1-c1ccnc2c(C(F)(F)F)cccc12,89.4,12
O=C(N/N=C/c1ccc(Cl)cc1Cl)c1ccccc1Nc1cccc(C(F)(F)F)c1,12.4,2.94
CCOC(=O)Cc1nc(/C(C#N)=C/c2ccco2)[nH]c(=O)c1C#N,> 100,–
CC1=Nc2c(ccc3c2C(=O)c2ccccc2C3=O)NC(c2ccncc2)C1 (stereo not given),> 100,> 100
Cc1ccc(C(=O)CC(Sc2cccc(Cl)c2Cl)c2ccc(Cl)cc2)cc1C (stereo not given),> 100,34.5
COc1cc(/C=C\c2ccc(O)cc2)cc(OC)c1OC,> 100,–
C=C(COC(C)=O)CC(/C=C(\C)CCC=C(C)C)OC(C)=O (stereo not given),> 100,–
CC1(C)CCc2cc3c(cc2O1)OCCC3=O,> 100,–
Oc1c2c(c(O)c3ccccc13)=N[C@@H](c1ccccc1)[C@H](c1ccccc1)N=2,> 100,–
c1cc[c]([Sn]([S]c2cccc3cccnc23)([c]2ccccc2)[c]2ccccc2)cc1,0.0644,0.0171
O=C1CCn2c([nH]c3cccc4cccc2c43)=N1,> 100,–
C=C1CC(COc2cc(Cl)nc(N)n2)C1,–,67.8
CCOc1cccc2nc3cccc(C(=O)NCCN(C)C)c3nc12,8.58,–
Cc1cc(C)nc(NS(=O)(=O)c2ccc(Nc3c4ccccc4nc4c(C(=O)N5CCN(CCOS(C)(=O)=O)CC5)ccc(Cl)c34)cc2)n1,> 100,–
Clc1cc(Cl)c2c(Cl)cc(Cl)c3c2c1N=S=N3,> 100,–
CN1CCN(C)C1c1cccc(C2N(C)CCN2C)c1,> 100,–
